PubChem BioAssay AID330 (DTP/NCI, 2004)
Where “and” joins values, the source holds several entries; their conditions need not be identical. Equal values may be shown once. Inconclusive results and toxic doses are left out. How the source made its calls: active means survival T/C of 150% or more; inactive means T/C below 125% in these data. Peptide text beside a SMILES is read from it. * marks the point of attachment. Boc = CC(C)(C)OC(=O)*

System: P388 leukemia ip, CD2F1 mice, survival T/C
Assay: NCI In Vivo Anticancer Drug Screen. Data for tumor model P388 Leukemia (intraperitoneal) in CD2F1 (CDF1) mice
Details: endpoint: median survival time, higher = longer survival
Method in brief: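 Mice carrying the transplanted tumor received test compound or vehicle. Survival was recorded in each group, and the value is the treated-group measurement divided by that of the vehicle-treated control group.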

[1] = dose: 50.0 mg/kg/injection, schedule: Q01DX009 (ip), vehicle: saline
[2] = dose: 100.0 mg/kg/injection, schedule: Q01DX009 (ip), vehicle: saline
[3] = dose: 200.0 mg/kg/injection, schedule: Q01DX009 (ip), vehicle: saline
[4] = dose: 50.0 mg/kg/injection, schedule: Q01DX009 (ip), vehicle: Klucel (hydroxypropylcellulose) (HPC)
[5] = dose: 100.0 mg/kg/injection, schedule: Q01DX009 (ip), vehicle: Klucel (hydroxypropylcellulose) (HPC)
[6] = dose: 200.0 mg/kg/injection, schedule: Q01DX009 (ip), vehicle: Klucel (hydroxypropylcellulose) (HPC)

Measured: T/C

O=C1c2ccccc2C(=O)N1/N=[N+](\[O-])c1ccccc1
inactive: dose: 25.0 mg/kg/injection, schedule: Q01DX005 (ip), vehicle: Klucel (hydroxypropylcellulose) (HPC) 105 % of control | dose: 50.0 mg/kg/injection, schedule: Q01DX005 (ip), vehicle: Klucel (hydroxypropylcellulose) (HPC) 88 % of control | dose: 100.0 mg/kg/injection, schedule: Q01DX005 (ip), vehicle: Klucel (hydroxypropylcellulose) (HPC) 106 % of control | dose: 200.0 mg/kg/injection, schedule: Q01DX005 (ip), vehicle: Klucel (hydroxypropylcellulose) (HPC) 110 % of control

CC1C=CC(c2ccccc2)C2C(=O)OC(=O)C12 (stereo not drawn)
inactive: dose: 60.0 mg/kg/injection, schedule: Q01DX005 (ip), vehicle: saline with Tween-80 116 % of control | dose: 120.0 mg/kg/injection, schedule: Q01DX005 (ip), vehicle: saline with Tween-80 114 % of control

O=C(O)CCCSC1=CC(=O)c2ccccc2C1=O
inactive: dose: 1.56 mg/kg/injection, schedule: Q04DX003 (ip), vehicle: DMSO 89 % of control | dose: 3.12 mg/kg/injection, schedule: Q04DX003 (ip), vehicle: DMSO 96 % of control | dose: 6.25 mg/kg/injection, schedule: Q04DX003 (ip), vehicle: DMSO 100 % of control and 93 % of control | dose: 12.5 mg/kg/injection, schedule: Q04DX003 (ip), vehicle: DMSO 100 % of control

O=S(=O)(c1cnccc1N1CCN(CCO)CC1)N1CCCC1
inactive: [1] 106 % of control | [2] 101 % of control | [3] 87 % of control

O=C(O)c1oc2ccccc2c1/C=C/c1ccccc1
inactive: dose: 50.0 mg/kg/injection, schedule: Q01DX009 (ip), vehicle: saline with Tween-80 100 % of control | dose: 100.0 mg/kg/injection, schedule: Q01DX009 (ip), vehicle: saline with Tween-80 97 % of control | dose: 200.0 mg/kg/injection, schedule: Q01DX009 (ip), vehicle: saline with Tween-80 100 % of control

CCn1c(=O)c2c(N(C)C)snc2n(CC)c1=O
inactive: [1] 96 % of control | [2] 107 % of control | [3] 110 % of control

CC(C)(C)OC(=O)NCC(=O)NCC(=O)O (Boc-Gly-Gly-OH)
inactive: dose: 50.0 mg/kg/injection, schedule: Q01DX005 (ip), vehicle: saline 102 % of control | dose: 100.0 mg/kg/injection, schedule: Q01DX005 (ip), vehicle: saline 102 % of control | dose: 200.0 mg/kg/injection, schedule: Q01DX005 (ip), vehicle: saline 101 % of control

CCOc1ccc(/C=N/NS(=O)(=O)c2ccccc2)cc1OC
inactive: dose: 100.0 mg/kg/injection, schedule: Q04DX003 (ip), vehicle: saline with Tween-80 100 % of control | dose: 200.0 mg/kg/injection, schedule: Q04DX003 (ip), vehicle: saline with Tween-80 95 % of control | dose: 400.0 mg/kg/injection, schedule: Q04DX003 (ip), vehicle: saline with Tween-80 100 % of control

CC(C)COP(=O)([O-])OCC[N+](C)(C)C
inactive: dose: 100.0 mg/kg/injection, schedule: Q01DX001 (ip), vehicle: Klucel (hydroxypropylcellulose) (HPC) 104 % of control | dose: 200.0 mg/kg/injection, schedule: Q01DX001 (ip), vehicle: Klucel (hydroxypropylcellulose) (HPC) 98 % of control | dose: 400.0 mg/kg/injection, schedule: Q01DX001 (ip), vehicle: Klucel (hydroxypropylcellulose) (HPC) 100 % of control

CCOC(=O)c1ccc(NC(=S)Nc2ccccc2C(F)(F)F)cc1
inactive: [4] 100 % of control | [5] 100 % of control | [6] 92 % of control

O=C1CC(c2ccccc2)C(c2ccccc2)C1 (stereo not drawn)
inactive: [4] 94 % of control | [5] 97 % of control | [6] 93 % of control

CC(C)(Cc1ccccc1)C(=C=C=C=C(c1ccccc1)C(C)(C)Cc1ccccc1)c1ccccc1
inactive: dose: 25.0 mg/kg/injection, schedule: Q01DX009 (ip), vehicle: Klucel (hydroxypropylcellulose) (HPC) 101 % of control | [4] 99 % of control | [5] 92 % of control

O=c1[nH]c2ccccc2n1C1CCN(CCOc2ccccc2)CC1
inactive: [4] 95 % of control | [5] 102 % of control | [6] 95 % of control

O=C(NC(=S)c1ccco1)NS(=O)(=O)c1ccc(Cl)cc1
inactive: dose: 25.0 mg/kg/injection, schedule: Q01DX001 (ip), vehicle: saline with Tween-80 100 % of control | dose: 50.0 mg/kg/injection, schedule: Q01DX001 (ip), vehicle: saline with Tween-80 95 % of control | dose: 100.0 mg/kg/injection, schedule: Q01DX001 (ip), vehicle: saline with Tween-80 96 % of control
